Assay results: patent publication US12077503B2, “Substituted cyclic amides and their use as herbicides” (FMC CORPORATION, priority 2015, dated 2024)

Legend:
Assay type in all cases: in vivo
Kochia (Kochia scoparia) [1] = test: Test A preemergence
Method in brief: (§1)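 Visual injury scores from 0, no effect, to 100, complete control, were assigned versus untreated controls roughly 10 d after treatment in the greenhouse. Test chemicals, formulated with surfactant in a non-phytotoxic solvent, were applied to planted seeds as a preemergence soil spray or postemergence to one- to two-leaf plants 2 to 10 cm tall, in loam–sand soil.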

[2] = system: barnyardgrass (Echinochloa crus-galli); test: Test A preemergence
Method in brief: as §1

[3] = system: giant foxtail (Setaria faberii); test: Test A preemergence
Method in brief: as §1

[4] = system: pigweed (Amaranthus retroflexus); test: Test A preemergence
[5] = system: ragweed (common ragweed, Ambrosia elatior); test: Test A preemergence
Method in brief: as §1

[6] = system: ryegrass, Italian (Italian ryegrass, Lolium multiflorum); test: Test A preemergence
Method in brief: as §1

[7] = system: Galium (catchweed bedstraw, Galium aparine); test: Test A postemergence; conditions: postemergence
Method in brief: as §1

Kochia (Kochia scoparia) [8] = test: Test A postemergence; conditions: postemergence
Method in brief: as §1

[9] = system: barnyardgrass (Echinochloa crus-galli); test: Test A postemergence
Method in brief: as §1

[10] = system: blackgrass (Alopecurus myosuroides); test: Test A postemergence
Method in brief: as §1

corn (Zea mays) = test: Test A postemergence
Method in brief: as §1

[11] = system: giant foxtail (Setaria faberii); test: Test A postemergence; conditions: postemergence
Method in brief: as §1

[12] = system: pigweed (Amaranthus retroflexus); test: Test A postemergence; conditions: postemergence
Method in brief: as §1

[13] = system: ragweed (common ragweed, Ambrosia elatior); test: Test A postemergence; conditions: postemergence
Method in brief: as §1

[14] = system: ryegrass, Italian (Italian ryegrass, Lolium multiflorum); test: Test A postemergence; conditions: postemergence
Method in brief: as §1

[15] = system: wheat (Triticum aestivum); test: Test A postemergence; conditions: postemergence
Method in brief: as §1

[16] = system: barnyardgrass (Echinochloa crus-galli); test: Test B flooded paddy test; conditions: Flood, 250 g ai/ha; 0 to 100 scale where 0 is no effect and 100 is complete control; 13 to 15 d
Method in brief: (§2)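 Compound goes directly into floodwater once pots are flooded 3 cm above soil, targeting plants at two leaves; the water depth is then held for the test duration. Plants sit 13–15 d in a greenhouse and are rated visually, 100 denoting complete control.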

[17] = system: ducksalad (Heteranthera limosa); test: Test B flooded paddy test; conditions: Flood, 250 g ai/ha; 0 to 100 scale where 0 is no effect and 100 is complete control; 13 to 15 d
Method in brief: as §2

rice (Oryra sativa) = test: Test B flooded paddy test; conditions: Flood, 250 g ai/ha; 0 to 100 scale where 0 is no effect and 100 is complete control; 13 to 15 d
Method in brief: as §2

[18] = system: sedge, umbrella (small-flower umbrella sedge, Cyperus difformis); test: Test B flooded paddy test; conditions: Flood, 250 g ai/ha; 0 to 100 scale where 0 is no effect and 100 is complete control; 13 to 15 d
Method in brief: as §2

[19] = 125 g ai/ha, preemergence, 0 to 100 scale (0 no effect, 100 complete control)
[20] = Preemergence, 500 g ai/ha, visual injury approx. 10 d
[21] = 125 g ai/ha, visual injury rating on 0 to 100 scale (0 no effect, 100 complete control), approx. 10 d
[22] = 500 g ai/ha, 0 to 100 scale, 0 no effect, 100 complete control
[23] = 125 g ai/ha, postemergence, visual injury rating on 0 to 100 scale (0 no effect, 100 complete control), approx. 10 d
[24] = 500 g ai/ha, postemergence, 0 to 100 scale, 0 no effect, 100 complete control
[25] = 125 g ai/ha, Preemergence, visual injury after approximately 10 d, 0 to 100 scale where 0 is no effect and 100 is complete control
[26] = 500 g ai/ha, preemergence, 0 to 100 scale, 0 = no effect, 100 = complete control
[27] = 125 g ai/ha, visual rating after approx. 10 d, 0 to 100 scale (0 no effect, 100 complete control)
[28] = 500 g ai/ha, visual injury, 0 to 100 scale (0 no effect, 100 complete control), approx. 10 d
[29] = 125 g ai/ha, postemergence, visual rating after approx. 10 d, 0 to 100 scale (0 no effect, 100 complete control)
[30] = Postemergence, 500 g ai/ha, 0 to 100 scale where 0 is no effect and 100 is complete control

SMILES: CN1CC(c2ccc3c(c2)OC(F)(F)O3)C(C(=O)Nc2ccc(F)cc2F)C1=O (stereo not drawn) [Compound 444]
- Plant response rating, Kochia (Kochia (Kochia scoparia) [1]; [19]): 60
- Kochia plant response rating (0 to 100 scale, 0 is no effect, 100 is complete control) (Kochia (Kochia scoparia) [1]; [20]): 80
- Plant response rating, Barnyardgrass [2, 19]: 90
- Barnyardgrass plant response rating (0 to 100 scale, 0 is no effect, 100 is complete control) [2, 20]: 90
- Plant response rating, Foxtail, Giant [3, 19]: 90
- Foxtail, Giant plant response rating (0 to 100 scale, 0 is no effect, 100 is complete control) [3, 20]: 90
- Plant response rating, Pigweed [4, 19]: 80
- Pigweed plant response rating (0 to 100 scale, 0 is no effect, 100 is complete control) [4, 20]: 80
- Plant response rating, Ragweed [5, 19]: 50
- Ragweed plant response rating (0 to 100 scale, 0 is no effect, 100 is complete control) [5, 20]: 80
- Plant response rating, Ryegrass, Italian [6, 19]: 40
- Ryegrass, Italian plant response rating (0 to 100 scale, 0 is no effect, 100 is complete control) [6, 20]: 90
- Galium plant response rating [7, 21]: 60
- Plant response rating, Galium [7, 22]: 70
- Kochia plant response rating (Kochia (Kochia scoparia) [8]; [21]): 40
- Plant response rating, Kochia (Kochia (Kochia scoparia) [8]; [22]): 80
- Barnyardgrass plant response rating [9, 23]: 80
- Plant response rating, Barnyardgrass [9, 24]: 90
- Blackgrass plant response rating [10, 23]: 70
- Plant response rating, Blackgrass [10, 24]: 60
- Corn plant response rating (corn (Zea mays); [23]): 60
- Plant response rating, Corn (corn (Zea mays); [24]): 70
- Foxtail, Giant plant response rating [11, 21]: 80
- Plant response rating, Foxtail, Giant [11, 22]: 80
- Pigweed plant response rating [12, 21]: 50
- Plant response rating, Pigweed [12, 22]: 80
- Ragweed plant response rating [13, 21]: 20
- Plant response rating, Ragweed [13, 22]: 40
- Ryegrass, Italian plant response rating [14, 21]: 50
- Plant response rating, Ryegrass, Italian [14, 22]: 80
- Wheat plant response rating [15, 21]: 50
- Plant response rating, Wheat [15, 22]: 50
- Plant response rating, Barnyardgrass [16]: 75
- Plant response rating, Ducksalad [17]: 100
- Plant response rating, Rice (rice (Oryra sativa)): 0
- Plant response rating, Sedge, Umbrella [18]: 0

SMILES: C=CCOc1cccc(C2CNC(=O)C2(CC=C)C(=O)Nc2cccc(F)c2F)c1 (stereo not drawn) [Compound 631]
- Plant response rating, Kochia (Kochia (Kochia scoparia) [1]; [25]): 0
- Plant response rating, Kochia (Kochia (Kochia scoparia) [1]; [26]): 0
- Plant response rating, Barnyardgrass [2, 25]: 0
- Plant response rating, Barnyardgrass [2, 26]: 0
- Plant response rating, Foxtail, Giant [3, 25]: 0
- Plant response rating, Foxtail, Giant [3, 26]: 0
- Plant response rating, Pigweed [4, 25]: 0
- Plant response rating, Pigweed [4, 26]: 0
- Plant response rating, Ragweed [5, 25]: 0
- Plant response rating, Ragweed [5, 26]: 0
- Plant response rating, Ryegrass, Italian [6, 25]: 0
- Plant response rating, Ryegrass, Italian [6, 26]: 0
- Plant response rating, Galium [7, 27]: 0
- Plant response rating, Galium [7, 28]: 0
- Plant response rating, Kochia (Kochia (Kochia scoparia) [8]; [27]): 0
- Plant response rating, Kochia (Kochia (Kochia scoparia) [8]; [28]): 0
- Plant response rating, Barnyardgrass [9, 29]: 0
- Plant response rating, Barnyardgrass [9, 30]: 0
- Plant response rating, Blackgrass [10, 29]: 0
- Plant response rating, Blackgrass [10, 30]: 0
- Plant response rating, Corn (corn (Zea mays); [29]): 0
- Plant response rating, Corn (corn (Zea mays); [30]): 0
- Plant response rating, Foxtail, Giant [11, 27]: 0
- Plant response rating, Foxtail, Giant [11, 28]: 0
- Plant response rating, Pigweed [12, 27]: 0
- Plant response rating, Pigweed [12, 28]: 0
- Plant response rating, Ragweed [13, 27]: 0
- Plant response rating, Ragweed [13, 28]: 0
- Plant response rating, Ryegrass, Italian [14, 27]: 0
- Plant response rating, Ryegrass, Italian [14, 28]: 0
- Plant response rating, Wheat [15, 27]: 0
- Plant response rating, Wheat [15, 28]: 0
- Plant response rating, Barnyardgrass [16]: 0
- Plant response rating, Ducksalad [17]: 0
- Plant response rating, Rice (rice (Oryra sativa)): 0
- Plant response rating, Sedge, Umbrella [18]: 0
